# Experimental data published in ChEMBL document CHEMBL1201862, “PubChem BioAssay data set” (2004).
#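 Exposure lasted 48 hours, with cells grown in 96-well plates and compounds tested at five concentrations. GI50: concentration for 50% inhibition of growth.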 Active and inactive are the calls of the source. Rule as the data show it: active = GI50 up to about 1.1 µM and inactive = higher.
# Tests used:
# Assay in all cases: inhibition of tumour cell growth, NCI panel, 48 h
# SNB-75 = test system: SNB-75
# RPMI-8226 = test system: RPMI-8226
# DMS-273 = test system: DMS-273
# KM-20L2 = test system: KM-20L2
# UO-31 = test system: UO-31
# OVCAR-8 = test system: OVCAR-8
# HCT-116 = test system: HCT-116
# OVCAR-3 = test system: OVCAR-3
# UACC-62 = test system: UACC-62
# HOP-92 = test system: HOP-92
# XF498 = test system: XF498
# OVCAR-5 = test system: OVCAR-5
# NCI-H23 = test system: NCI-H23
# SK-OV-3 = test system: SK-OV-3
# HL-60 = test system: HL-60
# CCRF-CEM = test system: CCRF-CEM
# M19-MEL = test system: M19-MEL
# Malme-3M = test system: Malme-3M
# SF-539 = test system: SF-539
# SF-268 = test system: SF-268
# HCC 2998 = test system: HCC 2998
# HT-29 = test system: HT-29
# CAKI-1 = test system: CAKI-1
# HOP-62 = test system: HOP-62
# MOLT-4 = test system: MOLT-4
# SR = test system: SR
# 786-0 = test system: 786-0
# ACHN = test system: ACHN
# SK-MEL-28 = test system: SK-MEL-28
# HCT-15 = test system: HCT-15
# SW-620 = test system: SW-620
# SK-MEL-2 = test system: SK-MEL-2
# A549 = test system: A549
# DLD-1 = test system: DLD-1
# K562 = test system: K562
# LOX IMVI = test system: LOX IMVI
# NCI-H460 = test system: NCI-H460
# RXF 393 = test system: RXF 393
# SK-MEL-5 = test system: SK-MEL-5
# KM12 = test system: KM12
# DMS-114 = test system: DMS-114
# COLO 205 = test system: COLO 205
# SN12C = test system: SN12C
# U-251 = test system: U-251
# NCI-H226 = test system: NCI-H226
# M14 = test system: M14
# LXFL 529 = test system: LXFL 529
# NCI-H522 = test system: NCI-H522
# UACC-257 = test system: UACC-257
# TK-10 = test system: TK-10
# IGROV-1 = test system: IGROV-1
# EKVX = test system: EKVX
# SNB-19 = test system: SNB-19
# OVCAR-4 = test system: OVCAR-4
# SNB-78 = test system: SNB-78
# SF-295 = test system: SF-295
# HOP-18 = test system: HOP-18
# A498 = test system: A498
compound,measurement,setting,value
Cn1c(=O)c2c(nc(C[N+]3([O-])CCOCC3)n2C)n(C)c1=O,GI50,SNB-75,63.5 µM (inactive)
same,GI50,RPMI-8226,> 100 µM (inactive)
same,GI50,DMS-273,> 100 µM (inactive)
same,GI50,KM-20L2,> 100 µM (inactive)
same,GI50,UO-31,> 100 µM (inactive)
same,GI50,OVCAR-8,> 100 µM (inactive)
same,GI50,HCT-116,7.98 µM (inactive)
same,GI50,OVCAR-3,> 100 µM (inactive)
same,GI50,UACC-62,> 100 µM (inactive)
same,GI50,HOP-92,> 100 µM (inactive)
same,GI50,XF498,> 100 µM (inactive)
same,GI50,OVCAR-5,> 100 µM (inactive)
same,GI50,NCI-H23,> 100 µM (inactive)
same,GI50,SK-OV-3,> 100 µM (inactive)
same,GI50,HL-60,> 100 µM (inactive)
same,GI50,CCRF-CEM,> 100 µM (inactive)
same,GI50,M19-MEL,> 100 µM (inactive)
same,GI50,Malme-3M,> 100 µM (inactive)
same,GI50,SF-539,> 100 µM (inactive)
same,GI50,SF-268,> 100 µM (inactive)
same,GI50,HCC 2998,> 100 µM (inactive)
same,GI50,HT-29,> 100 µM (inactive)
same,GI50,CAKI-1,36.9 µM (inactive)
same,GI50,HOP-62,> 100 µM (inactive)
same,GI50,MOLT-4,> 100 µM (inactive)
same,GI50,SR,> 100 µM (inactive)
same,GI50,786-0,> 100 µM (inactive)
same,GI50,ACHN,> 100 µM (inactive)
same,GI50,SK-MEL-28,> 100 µM (inactive)
same,GI50,HCT-15,> 100 µM
same,GI50,SW-620,> 100 µM (inactive)
same,GI50,SK-MEL-2,> 100 µM (inactive)
same,GI50,A549,> 100 µM (inactive)
same,GI50,DLD-1,> 100 µM (inactive)
same,GI50,K562,> 100 µM (inactive)
same,GI50,LOX IMVI,> 100 µM (inactive)
same,GI50,NCI-H460,> 100 µM (inactive)
same,GI50,RXF 393,> 100 µM (inactive)
same,GI50,SK-MEL-5,> 100 µM (inactive)
same,GI50,KM12,> 100 µM (inactive)
same,GI50,DMS-114,0.45 µM (active)
same,GI50,COLO 205,> 100 µM (inactive)
same,GI50,SN12C,> 100 µM (inactive)
same,GI50,U-251,> 100 µM (inactive)
same,GI50,NCI-H226,> 100 µM (inactive)
same,GI50,M14,> 100 µM (inactive)
same,GI50,LXFL 529,> 100 µM (inactive)
same,GI50,NCI-H522,> 100 µM (inactive)
same,GI50,UACC-257,> 100 µM (inactive)
same,GI50,TK-10,> 100 µM (inactive)
same,GI50,IGROV-1,> 100 µM (inactive)
same,GI50,EKVX,> 100 µM (inactive)
same,GI50,SNB-19,> 100 µM (inactive)
COc1ccc(/C(Cl)=C(\C=O)c2ccccc2)cc1OC,GI50,SNB-75,11.6 µM (inactive)
same,GI50,DMS-273,29.8 µM (inactive)
same,GI50,KM-20L2,44 µM (inactive)
same,GI50,OVCAR-4,25 µM (inactive)
same,GI50,UO-31,13.5 µM (inactive)
same,GI50,OVCAR-8,12.7 µM (inactive)
same,GI50,HCT-116,23.4 µM (inactive)
same,GI50,OVCAR-3,10.3 µM (inactive)
same,GI50,UACC-62,7.6 µM (inactive)
same,GI50,OVCAR-5,> 100 µM (inactive)
same,GI50,NCI-H23,15.2 µM (inactive)
same,GI50,SNB-78,16.7 µM (inactive)
same,GI50,SK-OV-3,70.3 µM (inactive)
same,GI50,HL-60,6.78 µM (inactive)
same,GI50,CCRF-CEM,15.1 µM (inactive)
same,GI50,M19-MEL,13.6 µM (inactive)
same,GI50,Malme-3M,61 µM (inactive)
same,GI50,SF-539,31.4 µM (inactive)
same,GI50,SF-268,33.1 µM (inactive)
same,GI50,HCC 2998,38.5 µM (inactive)
same,GI50,HT-29,28.1 µM (inactive)
same,GI50,CAKI-1,24.4 µM (inactive)
same,GI50,HOP-62,17.8 µM (inactive)
same,GI50,MOLT-4,6.85 µM (inactive)
same,GI50,SF-295,17.3 µM (inactive)
same,GI50,SR,5.68 µM (inactive)
same,GI50,ACHN,23.3 µM (inactive)
same,GI50,HCT-15,12.7 µM
same,GI50,SW-620,12.9 µM (inactive)
same,GI50,SK-MEL-2,19.4 µM (inactive)
same,GI50,A549,38.7 µM (inactive)
same,GI50,DLD-1,15.1 µM (inactive)
same,GI50,K562,19.2 µM (inactive)
same,GI50,LOX IMVI,13.2 µM (inactive)
same,GI50,NCI-H460,28.8 µM (inactive)
same,GI50,RXF 393,14.4 µM (inactive)
same,GI50,SK-MEL-5,25.4 µM (inactive)
same,GI50,DMS-114,13.1 µM (inactive)
same,GI50,COLO 205,10.1 µM (inactive)
same,GI50,SN12C,11 µM (inactive)
same,GI50,U-251,18 µM (inactive)
same,GI50,NCI-H226,21 µM (inactive)
same,GI50,M14,36.1 µM (inactive)
same,GI50,LXFL 529,12.4 µM (inactive)
same,GI50,NCI-H522,7.1 µM (inactive)
same,GI50,UACC-257,15.2 µM (inactive)
same,GI50,TK-10,21.4 µM (inactive)
same,GI50,IGROV-1,> 100 µM (inactive)
same,GI50,EKVX,3.6 µM (inactive)
same,GI50,SNB-19,27.9 µM (inactive)
same,GI50,HOP-18,30.1 µM (inactive)
Cn1c2ccccc2n2c(=O)c3c(c(C#N)c12)CCCC3,GI50,SNB-75,0.792 µM (active)
same,GI50,RPMI-8226,> 100 µM (inactive)
same,GI50,DMS-273,> 100 µM (inactive)
same,GI50,KM-20L2,> 100 µM (inactive)
same,GI50,OVCAR-4,> 100 µM (inactive)
same,GI50,UO-31,> 100 µM (inactive)
same,GI50,OVCAR-8,> 100 µM (inactive)
same,GI50,HCT-116,> 100 µM (inactive)
same,GI50,OVCAR-3,> 100 µM (inactive)
same,GI50,XF498,> 100 µM (inactive)
same,GI50,OVCAR-5,> 100 µM (inactive)
same,GI50,NCI-H23,> 100 µM (inactive)
same,GI50,SNB-78,> 100 µM (inactive)
same,GI50,SK-OV-3,> 100 µM (inactive)
same,GI50,HL-60,> 100 µM (inactive)
same,GI50,M19-MEL,> 100 µM (inactive)
same,GI50,Malme-3M,> 100 µM (inactive)
same,GI50,SF-539,> 100 µM (inactive)
same,GI50,SF-268,> 100 µM (inactive)
same,GI50,HCC 2998,> 100 µM (inactive)
same,GI50,A498,> 100 µM (inactive)
same,GI50,HT-29,> 100 µM (inactive)
same,GI50,CAKI-1,> 100 µM (inactive)
same,GI50,HOP-62,> 100 µM (inactive)
same,GI50,MOLT-4,> 100 µM (inactive)
same,GI50,SF-295,> 100 µM (inactive)
same,GI50,SR,> 100 µM (inactive)
same,GI50,786-0,> 100 µM (inactive)
same,GI50,ACHN,> 100 µM (inactive)
same,GI50,SK-MEL-28,> 100 µM (inactive)
same,GI50,HCT-15,> 100 µM
same,GI50,SW-620,> 100 µM (inactive)
same,GI50,SK-MEL-2,> 100 µM (inactive)
same,GI50,A549,> 100 µM (inactive)
same,GI50,DLD-1,> 100 µM (inactive)
same,GI50,K562,> 100 µM (inactive)
same,GI50,LOX IMVI,> 100 µM (inactive)
same,GI50,NCI-H460,> 100 µM (inactive)
same,GI50,RXF 393,> 100 µM (inactive)
same,GI50,SK-MEL-5,> 100 µM (inactive)
same,GI50,KM12,> 100 µM (inactive)
same,GI50,DMS-114,> 100 µM (inactive)
same,GI50,COLO 205,> 100 µM (inactive)
same,GI50,SN12C,> 100 µM (inactive)
same,GI50,U-251,> 100 µM (inactive)
same,GI50,NCI-H226,> 100 µM (inactive)
same,GI50,M14,> 100 µM (inactive)
same,GI50,UACC-257,> 100 µM (inactive)
same,GI50,TK-10,> 100 µM (inactive)
same,GI50,IGROV-1,> 100 µM (inactive)
same,GI50,EKVX,> 100 µM (inactive)
same,GI50,SNB-19,> 100 µM (inactive)
